In brackets after ≈: the same amount, converted by molar mass.
test: Kinetic solubility in 50 mM phosphate buffer pH 7.4; type: physicochemical; settings: aqueous buffer, kinetic from dmso stock, 50 mM phosphate buffer pH 7.4, 2% DMSO, room temperature
Description: 50 mM phosphate buffer pH=7.4: 0.39 g of NaH2PO4.2H2O, and 1.4025 g of Na2HPO4 were weighted and placed in an erlenmeyer flask, 240 mL of water was added. The solid was dissolved and mixed thoroughly, the pH value was adjusted to 7.4 with 10M NaOH solution, and the resulting solution was transferred to a 250 mL volumetric flask, followed by adding water to the mark.
Waters e2695 HPLC high performance liquid chromatography, Mettler XSE105 analytical balance.
Firstly, a 10 mM stock solution with DMSO as the solvent was prepared, and was diluted with a diluent (ACN: PB buffer 50:50) into 1 μM-200 μM as standard solution.
Kinetic solubility. 30 μL of the stock solution was placed in a 2 mL centrifuge tube, 1470 μL of 50 mM phosphate buffer (pH 7.4) (containing DMSO at a final concentration of 2%) was added. The mixture was shaken at room temperature (1000 rpm/min) for 24 hours, and then filtered. The filtrate was tested by high performance liquid chromatography (UV).

Which solubility kinetic at 24 h does the source give for COCc1cc(-c2nnc3c4ccccc4c(OCc4ccc(C(=O)NC5CCOCC5)cn4)nn23)no1 [Compound 04, 6-[3-(5-methoxymethyl-isoxazol-3-yl)-[1,2,4]triazolo[3,4-a]phthalazin-6-yloxymethyl]-N-(tetrahydro-pyran-4-yl)-nicotinamide] here?
Its solubility kinetic at 24 h is 13.1 µg/mL (≈ 25.5 µM).

With COCc1cc(-c2nnc3c4ccccc4c(OCc4ccc(C(=O)N[C@H](C)COC)cn4)nn23)no1 [Compound 09, (R)—N-(2-methoxy-1-methyl-ethyl)-6-[3-(5-methoxymethyl-isoxazol-3-yl)-[1,2,4]triazolo[3,4-a]phthalazin-6-yloxymethyl]-nicotinamide] as the compound, how does the solubility kinetic at 24 h read?
The solubility kinetic at 24 h was 27.7 µg/mL (≈ 55 µM).

With COCc1cc(-c2nnc3c4ccccc4c(OCc4ccc(C(=O)NCCOC(F)(F)F)cn4)nn23)no1 [Compound 13, 6-[3-(5-methoxymethyl-isoxazol-3-yl)-[1,2,4]triazolo[3,4-a]phthalazin-6-yloxymethyl]-N-(2-trifluoromethoxy-ethyl)-nicotinamide] as the compound, how does the solubility kinetic at 24 h read?
The solubility kinetic at 24 h was 0.57 µg/mL (≈ 1.05 µM).

Which solubility kinetic at 24 h does the source give for COCc1cc(-c2nnc3c4ccccc4c(OCc4ccc(C(=O)NC(C)(C)COC)cn4)nn23)no1 [Compound 14, N-(2-methoxy-1,1-dimethyl-ethyl)-6-[3-(5-methoxymethyl-isoxazol-3-yl)-[1,2,4]triazolo[3,4-a]phthalazin 6-yloxymethyl]-nicotinamide] here?
The solubility kinetic at 24 h was 35.7 µg/mL (≈ 68.9 µM).

For COCc1cc(-c2nnc3c4ccccc4c(OCc4ccc(C(=O)NCCO)cn4)nn23)no1 [Compound 16, N-(2-hydroxy-ethyl)-6-[3-(5-methoxymethyl-isoxazol-3-yl)-[1,2,4]triazolo[3,4-a]phthalazin-6-yloxymethyl]-nicotinamide], which solubility kinetic at 24 h is on record?
Its solubility kinetic at 24 h is 49.4 µg/mL (≈ 104 µM).

For COCc1cc(-c2nnc3c4ccccc4c(OCc4ccc(C(=O)NC5(C#N)CC5)cn4)nn23)no1 [Compound 19], which solubility kinetic at 24 h is on record?
The solubility kinetic at 24 h was 1.06 µg/mL (≈ 2.14 µM).

With COCc1cc(-c2nnc3c4ccccc4c(OCc4ccc(C(=O)NC5CC(F)C5)cn4)nn23)no1 (stereo not drawn) [Compound 21] as the compound, how does the solubility kinetic at 24 h read?
Its solubility kinetic at 24 h is 1.18 µg/mL (≈ 2.34 µM).

For COCc1cc(-c2nnc3c4ccccc4c(OCc4ccc(C(=O)NCCF)cn4)nn23)no1 [Compound 22], which solubility kinetic at 24 h is on record?
The solubility kinetic at 24 h was 8.92 µg/mL (≈ 18.7 µM).

For COCc1cc(-c2nnc3c4ccccc4c(OCc4ccc(C(=O)NCC(F)(F)CO)cn4)nn23)no1 [Compound 25], which solubility kinetic at 24 h is on record?
The solubility kinetic at 24 h was 2.71 µg/mL (≈ 5.16 µM).

Which solubility kinetic at 24 h does the source give for COCc1cc(-c2nnc3c4ccccc4c(OCc4ccc(C(=O)NC5CCOC5)cn4)nn23)no1 (stereo not drawn) [Compound 26, 6-[3-(5-methoxymethyl-isoxazol-3-yl)-[1,2,4]triazolo[3,4-a]phthalazin-6-yloxymethyl]-N-(tetrahydrofuran-3-yl)-nicotinamide] here?
Its solubility kinetic at 24 h is 20.3 µg/mL (≈ 40.6 µM).

With COCc1cc(-c2nnc3c4ccccc4c(OCc4ccc(C(=O)NC(C)C(F)(F)F)cn4)nn23)no1 (stereo not drawn) [Compound 27] as the compound, how does the solubility kinetic at 24 h read?
The solubility kinetic at 24 h was 5.58 µg/mL (≈ 10.6 µM).

Which solubility kinetic at 24 h does the source give for COCc1cc(-c2nnc3c4ccccc4c(OCc4ccc(C(=O)NC5CCC(F)(F)CC5)cn4)nn23)no1 [Compound 33] here?
Its solubility kinetic at 24 h is 2.99 µg/mL (≈ 5.44 µM).

Which solubility kinetic at 24 h does the source give for COCc1cc(-c2nnc3c4ccccc4c(OCc4ccc(C(=O)NC5CCC(F)(F)C5)cn4)nn23)no1 (stereo not drawn) [Compound 35] here?
The solubility kinetic at 24 h was 5.62 µg/mL (≈ 10.5 µM).

With COCc1cc(-c2nnc3c4ccccc4c(OCc4ccc(C(N)=O)cn4)nn23)no1 [Compound 36] as the compound, how does the solubility kinetic at 24 h read?
The solubility kinetic at 24 h was 0.8 µg/mL (≈ 1.85 µM).

Which solubility kinetic at 24 h does the source give for COCc1cc(-c2nnc3c4ccccc4c(OCc4ccc(C(=O)N5CC(O)C5)cn4)nn23)no1 [Compound 41] here?
Its solubility kinetic at 24 h is 6.57 µg/mL (≈ 13.5 µM).

Which solubility kinetic at 24 h does the source give for COCc1cc(-c2nnc3c4ccccc4c(OCc4ccc(C(=O)N5CC(C)OC(C)C5)cn4)nn23)no1 (stereo not drawn) [Compound 44] here?
Its solubility kinetic at 24 h is 74.6 µg/mL (≈ 141 µM).

Which solubility kinetic at 24 h does the source give for COCc1cc(-c2nnc3c4ccccc4c(OCc4ccc(C(=O)N(C)C5CC5)cn4)nn23)no1 [Compound 50] here?
The solubility kinetic at 24 h was 3.75 µg/mL (≈ 7.72 µM).

Which solubility kinetic at 24 h does the source give for COCc1cc(-c2nnc3c4ccccc4c(OCc4ccc(C(=O)N5CCC(F)(F)C5)cn4)nn23)no1 [Compound 51] here?
The solubility kinetic at 24 h was 5.62 µg/mL (≈ 10.8 µM).

Which solubility kinetic at 24 h does the source give for COCCN(CCOC)C(=O)c1ccc(COc2nn3c(-c4cc(COC)on4)nnc3c3ccccc23)nc1 [Compound 52] here?
Its solubility kinetic at 24 h is 51.9 µg/mL (≈ 94.7 µM).

Which solubility kinetic at 24 h does the source give for COCc1cc(-c2nnc3c4ccccc4c(OCc4ccc(C(=O)N5CCN(C)C(=O)C5)cn4)nn23)no1 [Compound 53] here?
The solubility kinetic at 24 h was 28 µg/mL (≈ 53 µM).

For COCc1cc(-c2nnc3c4ccccc4c(OCc4ccc(C(=O)N5CCCOCC5)cn4)nn23)no1 [Compound 55], which solubility kinetic at 24 h is on record?
The solubility kinetic at 24 h was 102 µg/mL (≈ 197 µM).

With COCc1cc(-c2nnc3c4ccccc4c(OCc4ccc(C(=O)N5CCC(OC)CC5)cn4)nn23)no1 [Compound 57, (6-(((3-(5-(methoxymethyl)isoxazol-3-yl)-[1,2,4]triazolo[3,4-a]phthalazin-6-yl)oxy)methyl)pyridin-3-yl)(4-methoxypiperidin-1-yl)methanone] as the compound, how does the solubility kinetic at 24 h read?
The solubility kinetic at 24 h was 26.5 µg/mL (≈ 50 µM).

For COCc1cc(-c2nnc3c4ccccc4c(OCc4ccc(C(=O)N(C)CC(F)(F)F)cn4)nn23)no1 [Compound 58], which solubility kinetic at 24 h is on record?
Its solubility kinetic at 24 h is 1.46 µg/mL (≈ 2.77 µM).

For Cc1cc(-c2nnc3c4ccccc4c(OCc4ccc(C(=O)NC5CCOCC5)cn4)nn23)no1 [reference compound], which solubility kinetic at 24 h is on record?
Its solubility kinetic at 24 h is 3.88 µg/mL (≈ 7.99 µM).

— patent US11512089B2, “Substituted [1,2,4]triazolo[3,4-a]phthalazines as modulators of GABAA receptor activity” (SHANGHAI SIMR BIOTECHNOLOGY CO., LTD, priority 2018, dated 2022)
